Measurements published in ChEMBL document CHEMBL1201862, “PubChem BioAssay data set” (2004).
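96-well plates; 48 h exposure; 5 concentrations. Endpoints by linear interpolation between flanking doses. Not reached: highest tested concentration assigned. GI50: concentration for 50% inhibition of growth.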 Active and inactive are the calls of the source. Cut-off read from the data, not from the text of the source: active = GI50 up to about 1.1 µM and inactive = higher.

Assays:
Experiment in all cases: growth of human tumour cells (NCI), 48 h
UO-31 = tested on: UO-31
LOX IMVI = tested on: LOX IMVI
A549 = tested on: A549
Hs-578T = tested on: Hs-578T
A498 = tested on: A498
OVCAR-4 = tested on: OVCAR-4
MCF7 = tested on: MCF7
TK-10 = tested on: TK-10
HOP-92 = tested on: HOP-92
DU-145 = tested on: DU-145
SF-539 = tested on: SF-539
CCRF-CEM = tested on: CCRF-CEM
RXF 393 = tested on: RXF 393
U-251 = tested on: U-251
HOP-62 = tested on: HOP-62
PC-3 = tested on: PC-3
ACHN = tested on: ACHN
SK-MEL-2 = tested on: SK-MEL-2
T47D = tested on: T47D

Measured: GI50

O=C(NCc1ccccc1)c1c(O)nc2ccccc2c1O
inactive: UO-31 > 100 µM | LOX IMVI > 100 µM | A549 > 100 µM | Hs-578T 40.7 µM | A498 > 100 µM | OVCAR-4 > 100 µM | MCF7 > 100 µM | TK-10 > 100 µM | HOP-92 > 100 µM | DU-145 > 100 µM | SF-539 > 100 µM | CCRF-CEM > 100 µM | RXF 393 > 100 µM | U-251 > 100 µM | HOP-62 > 100 µM | PC-3 > 100 µM | ACHN > 100 µM

CN(C)c1ccc(/C=N/CC2CCCN3CCCCC23)cc1 (stereo not given)
inactive: UO-31 > 100 µM | LOX IMVI > 100 µM | A549 > 100 µM | Hs-578T 24.8 µM | MCF7 > 100 µM | TK-10 > 100 µM | DU-145 > 100 µM | RXF 393 47.3 µM | HOP-62 > 100 µM | PC-3 > 100 µM | ACHN > 100 µM

CC(=O)Nc1ccc(-c2nnc(SCC(=O)Nc3ccc(Cl)cc3Cl)o2)cc1
inactive: SK-MEL-2 > 100 µM | UO-31 94.8 µM | LOX IMVI 27.8 µM | A549 > 100 µM | A498 40.8 µM | OVCAR-4 37.4 µM | TK-10 96.8 µM | SF-539 33 µM | CCRF-CEM 25.4 µM | RXF 393 33.7 µM | U-251 18 µM | HOP-62 70 µM | ACHN 44.6 µM

O=C(O)CCc1ccc2c(c1)C(=O)CC2
inactive: SK-MEL-2 > 100 µM | T47D 93.1 µM | UO-31 > 100 µM | LOX IMVI > 100 µM | A549 > 100 µM | A498 > 100 µM | OVCAR-4 > 100 µM | MCF7 > 100 µM | TK-10 > 100 µM | DU-145 > 100 µM | SF-539 > 100 µM | CCRF-CEM > 100 µM | RXF 393 > 100 µM | U-251 > 100 µM | HOP-62 > 100 µM | ACHN > 100 µM

O=C1Nc2ccccc2/C1=N/Nc1nc(-c2ccc(Br)cc2)cs1
inactive: SK-MEL-2 46.1 µM | UO-31 10.3 µM | LOX IMVI 17.4 µM | A549 25.2 µM | Hs-578T 17.9 µM | OVCAR-4 18.5 µM | MCF7 37.3 µM | TK-10 28.6 µM | HOP-92 11.4 µM | DU-145 23.3 µM | SF-539 17.5 µM | CCRF-CEM 15.7 µM | RXF 393 43.9 µM | U-251 14.3 µM | HOP-62 14.6 µM | PC-3 28.6 µM | ACHN 17.5 µM

Cn1c(=O)c(C(=O)Nc2nc(C34CC5CC(CC(C5)C3)C4)cs2)c(O)c2ccccc21
inactive: UO-31 > 100 µM | LOX IMVI > 100 µM | A549 79.8 µM | Hs-578T 23.8 µM | A498 58.9 µM | OVCAR-4 > 100 µM | MCF7 > 100 µM | TK-10 25.1 µM | HOP-92 18.2 µM | DU-145 > 100 µM | SF-539 > 100 µM | CCRF-CEM 41.2 µM | RXF 393 22.2 µM | U-251 57.5 µM | HOP-62 10.7 µM | PC-3 > 100 µM | ACHN 24.3 µM

O=C(O)CC[C@H](NC(=O)c1ccc(-n2nc3ccc(=O)cc-3[nH]c2=O)cc1)C(=O)O
inactive: SK-MEL-2 > 100 µM | UO-31 > 100 µM | A549 > 100 µM | A498 > 100 µM | OVCAR-4 > 100 µM | TK-10 > 100 µM | HOP-92 > 100 µM | SF-539 > 100 µM | CCRF-CEM > 100 µM | RXF 393 > 100 µM | U-251 > 100 µM | HOP-62 > 100 µM | ACHN > 100 µM

CCOc1ccc(NC(=O)CC2Sc3ccccc3NC2=O)cc1 (stereo not given)
inactive: UO-31 47.2 µM | A549 > 100 µM | A498 > 100 µM | OVCAR-4 18.4 µM | TK-10 60.5 µM | SF-539 45.3 µM | CCRF-CEM > 100 µM | U-251 45 µM | HOP-62 44.9 µM | ACHN 49.8 µM

Cc1nc(C(N)=S)sc1C(=O)/C=C/c1cccc(O)c1
inactive: SK-MEL-2 > 100 µM | UO-31 > 100 µM | LOX IMVI 45.2 µM | A549 > 100 µM | A498 > 100 µM | TK-10 > 100 µM | HOP-92 60.4 µM | SF-539 > 100 µM | CCRF-CEM 28.4 µM | RXF 393 > 100 µM | U-251 > 100 µM | HOP-62 > 100 µM | ACHN 56.6 µM

O=S(=O)(c1ccccc1)c1cccc2c1NCCC2
inactive: SK-MEL-2 > 10 µM | UO-31 27.5 µM | LOX IMVI 35.6 µM | A549 33.3 µM | Hs-578T 52.1 µM | A498 > 100 µM | OVCAR-4 > 100 µM | MCF7 40.8 µM | TK-10 64.9 µM | HOP-92 28.8 µM | DU-145 59.4 µM | SF-539 45 µM | CCRF-CEM 46.8 µM | RXF 393 27.7 µM | HOP-62 > 100 µM | PC-3 31.1 µM | ACHN 58.9 µM

CC(C)=CC(=O)c1c(C(=O)O)nc2ccccc2[n+]1[O-]
inactive: SK-MEL-2 > 100 µM | UO-31 > 100 µM | LOX IMVI > 100 µM | A549 > 100 µM | A498 > 100 µM | OVCAR-4 > 100 µM | TK-10 > 100 µM | HOP-92 > 100 µM | SF-539 > 100 µM | CCRF-CEM > 100 µM | RXF 393 > 100 µM | U-251 > 100 µM | HOP-62 > 100 µM | ACHN > 100 µM

c1csc(-c2ccc(-c3cccc4nsnc34)s2)c1
inactive: SK-MEL-2 > 100 µM | T47D 5.32 µM | UO-31 > 100 µM | LOX IMVI > 100 µM | A549 62.1 µM | A498 > 100 µM | OVCAR-4 21.7 µM | MCF7 14.7 µM | TK-10 70.5 µM | DU-145 > 100 µM | SF-539 > 100 µM | CCRF-CEM 20.2 µM | RXF 393 94.4 µM | U-251 91.2 µM | HOP-62 27.4 µM | PC-3 > 100 µM | ACHN > 100 µM

CC1OC(n2cc(F)c(=O)[nH]c2=O)CCC1=O (stereo not given)
inactive: SK-MEL-2 > 100 µM | UO-31 71.8 µM | LOX IMVI 88.1 µM | A549 46.7 µM | A498 30.4 µM | OVCAR-4 > 100 µM | TK-10 > 100 µM | HOP-92 > 100 µM | SF-539 10.4 µM | CCRF-CEM > 100 µM | RXF 393 > 100 µM | U-251 > 100 µM | HOP-62 50.8 µM | ACHN > 100 µM

CCOC(=O)Cn1c(=O)c2nc(SC)sc2n(-c2ccccc2)c1=O
inactive: SK-MEL-2 > 100 µM | UO-31 > 100 µM | A549 > 100 µM | Hs-578T > 100 µM | A498 22.4 µM | MCF7 > 100 µM | TK-10 > 100 µM | HOP-92 33.7 µM | CCRF-CEM > 100 µM | RXF 393 > 100 µM | U-251 > 100 µM | HOP-62 > 100 µM | PC-3 > 100 µM | ACHN > 100 µM

O=c1[nH]n(CCc2ccccc2CCl)c2ccc([N+](=O)[O-])cc12
inactive: SK-MEL-2 > 100 µM | UO-31 25 µM | LOX IMVI 41.5 µM | A549 99.1 µM | Hs-578T 54.3 µM | A498 91 µM | OVCAR-4 37.2 µM | MCF7 48.5 µM | TK-10 > 100 µM | HOP-92 67.6 µM | DU-145 77.3 µM | SF-539 > 100 µM | CCRF-CEM 37 µM | RXF 393 92.3 µM | U-251 81.8 µM | HOP-62 > 100 µM | PC-3 78.3 µM | ACHN > 100 µM

OC12CC/C(=N/OCc3ccccc3)CC1c1ccccc12 (stereo not given)
inactive: SK-MEL-2 > 100 µM | UO-31 > 100 µM | LOX IMVI > 100 µM | A549 > 100 µM | OVCAR-4 > 100 µM | TK-10 > 100 µM | SF-539 > 100 µM | CCRF-CEM > 100 µM | RXF 393 > 100 µM | U-251 > 100 µM | HOP-62 > 100 µM | ACHN > 100 µM

FC(F)(F)c1cnc(N/N=C(/c2ccccc2)c2ccccn2)c(Cl)c1
inactive: SK-MEL-2 8.18 µM | UO-31 4.94 µM | A549 3.53 µM | Hs-578T 9.14 µM | OVCAR-4 7.76 µM | MCF7 2.44 µM | HOP-92 8.75 µM | DU-145 6.64 µM | SF-539 4.6 µM | CCRF-CEM 2.4 µM | RXF 393 12.3 µM | U-251 4.9 µM | HOP-62 7.4 µM | PC-3 5.3 µM | ACHN 3.21 µM

Cc1ccc(-c2c(C#N)c(N)[nH]c(=S)c2C#N)cc1
inactive: SK-MEL-2 25.2 µM | UO-31 40.3 µM | LOX IMVI 42.2 µM | A549 58.5 µM | Hs-578T 18.5 µM | A498 35.2 µM | OVCAR-4 54.7 µM | MCF7 32 µM | TK-10 73.6 µM | HOP-92 31.4 µM | DU-145 50.8 µM | SF-539 > 100 µM | RXF 393 18.7 µM | U-251 49.1 µM | HOP-62 55 µM | PC-3 33 µM | ACHN 79.3 µM
